Test results taken from patent publication US8895568B2, “Compositions comprising substituted pteridines as agrochemicals” (Dow AgroSciences LLC, priority 2009, dated 2014).
Where two headings read alike, the source gives them in different places.

Experiments:
Type in all cases: in vivo
Colletotricum lagenarium = test: Cucumber Anthracnose (COLLLA), foliar spray, percent disease control
[1] = system: Pseudoperonospora cubensis; test: Cucumber Downy Mildew (PSPECU), foliar spray, percent disease control; conditions: read-out: PSPECU percent control
Cochliobolus sativus = test: Spot Blotch of Wheat (COCHSA), foliar spray, percent disease control
[2] = system: DROSME, AEDSAE, LAPHEG, or HELIVI; test: Insecticidal activity, active if any of DROSME, AEDSAE, LAPHEG or HELIVI was controlled at 80% or more; conditions: read-out: >80% mortality on any insect species @ 4000 ppm
[3] = Bipolaris sorokiniana, foliar; read-out: COCHSA percent control
[4] = Bipolaris sorokiniana; foliar spray; read-out: COCHSA percent control

| SMILES | pest or weed control at 200 µg/mL (Colletotricum lagenarium; foliar) [%] | pest or weed control at 200 µg/mL ([1]; foliar) [%] | pest or weed control at 200 µg/mL (Cochliobolus sativus; [3]) [%] | pest or weed control at 4000 ppm [2] [%] | pest or weed control at 200 µg/mL (Colletotricum lagenarium; foliar spray) [%] | pest or weed control at 200 µg/mL ([1]; foliar spray) [%] | pest or weed control at 200 µg/mL (Cochliobolus sativus; [4]) [%] | pest or weed control at 200 µg/mL (Cochliobolus sativus; Bipolaris sorokiniana, foliar, read-out: COCHSA percent control) [%] |
| --- | --- | --- | --- | --- | --- | --- | --- | --- |
| Cc1c(CCNc2ncnc3nccnc23)ccc(Oc2ncc(C(F)(F)F)cc2F)c1C [Compound 148] | 0 to 49 | 80 to 100 | 0 to 49 | > 80 |  |  |  |  |
| CC(Nc1ncnc2nccnc12)c1ccc(Oc2cc(C(F)(F)F)ccn2)cc1 (stereo not drawn) [Compound 82] | 0 to 49 | 80 to 100 | 0 to 49 | > 80 |  |  |  |  |
| FC(F)(F)c1ccnc(Oc2ccc(CCNc3ncnc4nccnc34)cc2Br)c1 [Compound 212, {2-[3-bromo-4-(4-trifluoromethylpyridin-2-yloxy)-phenyl]-ethyl}-pteridin-4-yl-amine] |  |  |  | > 80 | 80 to 100 | 80 to 100 | 50 to 79 |  |
| Ic1ccnc(Oc2ccc(CCNc3ncnc4nccnc34)cc2)c1 [Compound 36, N-(2-{4-[(4-iodopyridin-2-yl)oxy]phenyl}ethyl)pteridin-4-amine] | 50 to 79 | 80 to 100 | 50 to 79 | > 80 |  |  |  |  |
| CC(C)OC(=O)c1cnc(Oc2ccc(CCNc3ncnc4nccnc34)cc2)c(Cl)c1 [Compound 164] | 0 to 49 | 0 to 49 | 0 to 49 | > 80 |  |  |  |  |
| COC(=O)c1cnc(Oc2ccc(CCNc3ncnc4nccnc34)cc2)cc1C(F)(F)F [Compound 202] |  |  |  | > 80 | 0 to 49 | 80 to 100 | 0 to 49 |  |
| CCOc1cc(CCNc2ncnc3nccnc23)ccc1Oc1cc(C(F)(F)F)ccn1 [Compound 153] | 0 to 49 | 80 to 100 | 0 to 49 | > 80 |  |  |  |  |
| Cc1c(CCNc2ncnc3nccnc23)ccc(Oc2cc(C(F)(F)F)ccn2)c1C [Compound 145] | 50 to 79 | 80 to 100 | 0 to 49 | > 80 |  |  |  |  |
| COC(=O)c1cc(CCNc2ncnc3nccnc23)ccc1Oc1cc(C(F)(F)F)ccn1 [Compound 213, 5-[2-(Pteridin-4-ylamino)-ethyl]-2-(4-trifluoromethyl-pyridin-2-yloxy)-benzoic acid, methyl ester] |  |  |  | > 80 | 0 to 49 | 80 to 100 | 0 to 49 |  |
| N#Cc1cccc(Oc2ccc(CCNc3ncnc4nccnc34)cc2)n1 [Compound 13] | 0 to 49 | 80 to 100 | 0 to 49 | > 80 |  |  |  |  |
| FC(F)(F)c1cccc(-c2ccc(CCNc3ncnc4nccnc34)cc2)c1 [Compound 122] | 0 to 49 | 50 to 79 |  | > 80 |  |  |  | 0 to 49 |
| Cc1cc(CCNc2ncnc3nccnc23)ccc1Oc1ncc(C(F)(F)F)cc1F [Compound 143] | 0 to 49 | 80 to 100 | 0 to 49 | > 80 |  |  |  |  |
| Fc1cccc(Oc2ccc(CCNc3ncnc4nccnc34)cc2)n1 [Compound 7, {2-[4-(6-Fluoropyridin-2-yloxy)-phenyl]-ethyl}-pteridin-4-ylamine] | 0 to 49 | 80 to 100 | 0 to 49 | > 80 |  |  |  |  |
| COc1cc(CCNc2ncnc3nccnc23)ccc1Oc1nccc(C(F)(F)F)n1 [Compound 97] | 0 to 49 | 80 to 100 | 0 to 49 | > 80 |  |  |  |  |
| FC(F)(F)c1ccc(Oc2ccc(CCNc3ncnc4nccnc34)cc2)nn1 [Compound 34] | 0 to 49 | 80 to 100 | 0 to 49 | > 80 |  |  |  |  |
| N#Cc1ccnc(Oc2ccc(CCNc3ncnc4nccnc34)cc2)c1 [Compound 8] | 80 to 100 | 80 to 100 | 0 to 49 | > 80 |  |  |  |  |
| FC(F)(F)c1cccnc1Oc1ccc(CCNc2ncnc3nccnc23)cc1 [Compound 60] | 50 to 79 | 80 to 100 | 0 to 49 | > 80 |  |  |  |  |
| FC(F)(F)c1cc(Cl)nc(Oc2ccc(CCNc3ncnc4nccnc34)cc2)c1 [Compound 90, {2-[4-(6-chloro-4-trifluoromethylpyridin-2-yloxy)-phenyl]-ethyl}-pteridin-4-yl-amine] | 0 to 49 | 80 to 100 | 0 to 49 | > 80 |  |  |  |  |

| SMILES | pest or weed control at 200 µg/mL (Colletotricum lagenarium; foliar) [%] | pest or weed control at 200 µg/mL ([1]; foliar) [%] | pest or weed control at 200 µg/mL (Cochliobolus sativus; [3]) [%] | pest or weed control at 4000 ppm [2] [%] | pest or weed control at 200 µg/mL (Colletotricum lagenarium; foliar spray) [%] | pest or weed control at 200 µg/mL ([1]; foliar spray) [%] | pest or weed control at 200 µg/mL (Cochliobolus sativus; [4]) [%] | pest or weed control at 200 µg/mL (Cochliobolus sativus; Bipolaris sorokiniana, foliar, read-out: COCHSA percent control) [%] |
| --- | --- | --- | --- | --- | --- | --- | --- | --- |
| Cc1nc2ncnc(NCCc3ccc(Oc4ncccc4C(F)(F)F)cc3)c2nc1C [Compound 200] |  |  |  | > 80 | 0 to 49 | 0 to 49 | 0 to 49 |  |
| CCOC(=O)c1ccc(Oc2ccc(CCNc3ncnc4nccnc34)cc2)nc1 [Compound 137] | 0 to 49 | 0 to 49 | 0 to 49 | > 80 |  |  |  |  |
| Cc1cnc2ncnc(NCCc3ccc(Oc4nccc(C(F)(F)F)n4)cc3)c2n1 [Compound 55] | 50 to 79 | 80 to 100 | 0 to 49 | > 80 |  |  |  |  |
| Cc1cnc2ncnc(NCCc3ccc(Oc4cc(C(F)(F)F)ccn4)cc3)c2n1 [Compound 76] | 0 to 49 | 80 to 100 | 0 to 49 | > 80 |  |  |  |  |
| c1csc(Oc2ccc(CCNc3ncnc4nccnc34)cc2)n1 [Compound 48] | 0 to 49 | 80 to 100 | 0 to 49 | > 80 |  |  |  |  |
| CC(Nc1ncnc2nccnc12)c1ccc(Oc2ccc(C(F)(F)F)cn2)cc1 (stereo not drawn) [Compound 67] | 0 to 49 | 80 to 100 | 0 to 49 | > 80 |  |  |  |  |
| FC(F)(F)COc1ccc(CCNc2ncnc3nccnc23)cn1 [Compound 232] |  |  |  | > 80 | 50 to 79 | 80 to 100 | 0 to 49 |  |
| Cc1nnsc1Oc1ccc(CCNc2ncnc3nccnc23)cc1 [Compound 59] | 0 to 49 | 0 to 49 | 0 to 49 | > 80 |  |  |  |  |
| N#Cc1ccc(Oc2ccc(CCNc3ncnc4nccnc34)c(F)c2)nc1 [Compound 104] | 0 to 49 | 80 to 100 | 0 to 49 | > 80 |  |  |  |  |
| COc1cc(C(F)(F)F)cc(Oc2ccc(CCNc3ncnc4nc(C)c(C)nc34)cc2)n1 [Compound 198] | 0 to 49 | 0 to 49 | 0 to 49 | > 80 |  |  |  |  |
| CC(Nc1ncnc2nccnc12)c1ccc(Oc2nccc(C(F)(F)F)n2)cc1 (stereo not drawn) [Compound 68] | 0 to 49 | 80 to 100 | 0 to 49 | > 80 |  |  |  |  |
| Cc1cc(CCNc2ncnc3nccnc23)ccc1Oc1c(F)cnc(C(F)(F)F)c1F [Compound 166] | 50 to 79 | 80 to 100 | 0 to 49 | > 80 |  |  |  |  |
| Cc1cc(CCNc2ncnc3nccnc23)ccc1Oc1cc(C#N)ccn1 [Compound 155] | 50 to 79 | 80 to 100 | 0 to 49 | > 80 |  |  |  |  |
| FC(F)(F)c1ccc(Oc2ccc(CCNc3ncnc4nccnc34)cc2)nc1 [Compound 5] | 80 to 100 | 80 to 100 | 0 to 49 | > 80 |  |  |  |  |
| COCCOc1cc(C(F)(F)F)cc(Oc2ccc(CCNc3ncnc4nccnc34)cc2)n1 [Compound 91, (2-{4-[6-(2-Methoxyethoxy)-4-trifluoromethyl-pyridin-2-yloxy]-phenyl}-ethyl)-pteridin-4-yl-amine] | 0 to 49 | 80 to 100 | 0 to 49 | > 80 |  |  |  |  |
| Cc1cc(Oc2cc(C(C)(F)F)ccn2)c(C)cc1CCNc1ncnc2nccnc12 [Compound 194] | 80 to 100 | 80 to 100 | 0 to 49 | > 80 |  |  |  |  |
| CCc1ncnc(Oc2ccc(CCNc3ncnc4nccnc34)cc2)c1Cl [Compound 146] | 50 to 79 | 80 to 100 | 0 to 49 | > 80 |  |  |  |  |
| Cc1ccnc(Oc2ccc(CCNc3ncnc4nccnc34)cc2)c1 [Compound 42] | 80 to 100 | 80 to 100 | 0 to 49 | > 80 |  |  |  |  |
